Experiments:
[1] = DPPH radical scavenging assay; settings: mean ± SEM of three experiments; 30 min, 517 nm
Protocol: The DPPH scavenging activity of all synthesized compounds was measured as previously described by Nahar et al.[48] with some modifications. Briefly, 100 µL of different concentrations of the tested compounds (12.5, 25, 50, 100, and 200 µg/mL) were pipetted into a 96-well plate. Then, 100 µL of 100-µM DPPH methanolic solution were added to each well and the plate was incubated protected from light at room temperature for 30 min. The absorbance of the solution was measured at λ517 nm.[49] Ascorbic acid was used as the positive control while DMSO was the negative control. The percentage of DPPH scavenging activity was calculated according to the following equation: % of DPPH scavenging=[(Acontrol–Asample)/Acontrol] ×100, where Acontrol is the absorbance of the control reaction (with all reagents except the test compound), and Asample is the absorbance of the test sample. […] All tests were performed in triplicates.

[2] = tested on: lipid peroxidation (MDA) in liver; assay: In vivo lipid peroxide level (TBARS/MDA) in liver homogenate; parameters: species or system male Wistar albino rats; settings: rat liver; 100 mg/kg orally for 3 days; mean ± SEM, n = 6
Protocol: (§1) The complete progress of the experiment was conducted using male Wistar albino rats (200–250 g), delivered by the Institutional Breeding House, Egypt, reared and maintained in the animal house of the institution. The animals had free access to food and water ad libitum and maintained in a controlled environment under standard conditions of temperature and humidity with an alternating 12 h light and dark cycle for about a week for acclimatization. The protocol of the study was approved by the Animal Ethics Committee of the Faculty of Pharmacy, Helwan University (ethical code number: 05A2019; date: October 2019). The study was conducted in accordance with the EC, directive 86/609/EEC for animal experiments.
(§2) Rats are weighed at the beginning and at the end of experiment. Fifty-four male albino rats (n=6) were divided into nine different groups. Group I served as a control group and treated with the same volume vehicle only. Group II treated with 100 mg/kg of Ascorbic acid as standard antioxidant drug. Groups (III–IX) orally administered 100 mg/kg of compounds 3a, 4e, 5b, 5c, 6a, 6c, 6e, respectively, for 3 days. The animals were sacrificed by cervical dislocation 24 h after the last dose. Sacrificing is carried out at the same time of the day, to avoid the circadian variation in the level of tissue GSH[53]. Each liver was excised, weighed, rinsed in ice-cold normal saline and frozen for not more than 72 h await analysis of endogenous antioxidant status (GSH levels and CAT activity) and lipid peroxide concentrations. For performing biochemical assays, a 10% liver homogenate in 10 mM phosphate buffer was prepared using tissue homogeniser (Glas-Col®, Cat no.099C K6424, TERRE HAUTE, USA).
Lipid peroxidation level in the liver homogenates was determined as thiobarbituric acid reactive substances (TBARS) by measuring malondialdehyde ‘MDA’ level according to Mihara and Uchiyama[56]. Briefly, 0.5 mL supernatant of tissue homogenate was mixed with 0.6% thiobarbituric acid (TBA) and 1% orthophosphoric acid solution, and heated in a boiling water bath for 45 min. The pink-coloured chromogen formed by the reaction of TBA with MDA was extracted by n-butanol and measured at 535 nm. The results were expressed as nmol/g tissue.

[3] = NO scavenging assay (sodium nitroprusside / Griess reagent); settings: mean ± SEM of three experiments; 90 min, 546 nm
Protocol: The NO scavenging activity of all synthesized compounds was measured as previously described by Ho et al.[50] Briefly, 50 µL of different concentrations of the tested compounds (12.5, 25, 50,100, and 200 µg/mL) were pipetted into a 96-well plate. Then, 50 µL of 10-mM sodium nitroprussides dissolved in phosphate-buffered saline PBS (pH 7.4) were added to each well and the plate was incubated for 90 min at room temperature. Next, an equal volume of Griess reagent (1% of sulphanilamide and 0.1% of naphthyl ethylene diamine in 2.5% […]) was added to each well to measure the nitrite content. The absorbance of the formed pink-coloured chromophore was measured at λ 546 nm. DMSO and ascorbic acid were used as the negative and positive control, respectively. All tests were performed in triplicate. The percentage of NO scavenging activity was calculated according to the following equation: % of NO scavenging=[(Acontrol−Asample)/Acontrol]×100 where Acontrol is the absorbance of the control reaction (with all reagents except the test compound), and Asample is the absorbance of the test sample.

[4] = Superoxide scavenging assay (pyrogallol autoxidation); settings: mean ± SEM of three experiments; pyrogallol autoxidation, 325 nm
Protocol: The improved pyrogallol autoxidation method was used to determine O2^−. RSA of all synthesized compounds as previously described. Briefly, 50 µL of test compounds (12.5, 25, 50,100, and 200 µg/mL) was added to 2900 µl of […] Tris HCl buffer (0.05 M, pH 7.4) containing 1-mM Na2EDTA. Next, 50 µL of 60-mM pyrogallol in1mM HCl had been thoroughly mixed with the mixture. The absorbance of the reaction mixture was measured at A325 nm every 30 s for 5 min. O2^− RSA was expressed by the oxidation degree of a test group in comparison to that of the control. The absorbance at 325 nm was measured against the Tris-HCl buffer every 30 s for 5 min. The percentage of scavenging effect was calculated using the following equation: O2^− radical scavenging %=[(ΔA325, control/T)−(ΔA325nm, sample/T)/ΔA325nm, control/T]×100 where ΔA325 nm, control is the increase in A325 nm of the reaction mixture without the sample and ΔA325 nm, sample is that for the mixture with the sample; T=5 min. The experiments were performed in triplicate.

[5] = tested on: Catalase (CAT) activity in liver; assay: In vivo catalase (CAT) activity in liver homogenate; parameters: species or system male Wistar albino rats; settings: rat liver; 100 mg/kg orally for 3 days; mean ± SEM, n = 6
Protocol: as §1, §2
Catalase activity in 10% liver homogenates was determined spectrophotometrically according to Sinha AK[54]. The decrease in absorbance at 240 nm due to H2O2 decomposition was measured and the results were expressed in U/mg tissue.

[6] = tested on: glutathione (GSH) in liver; assay: In vivo reduced glutathione (GSH) level in liver homogenate; parameters: species or system male Wistar albino rats; settings: rat liver; 100 mg/kg orally for 3 days; mean ± SEM, n = 6
Protocol: as §1, §2
Levels of glutathione (GSH) in liver homogenates were assayed by the deproteinization of tissue homogenate. Then […] supernatant was mixed with di-potassium hydrogen phosphate buffer (pH 8) and 0.4% 5,5′-dithiobis-2-nitrobenzoic acid (Ellman’s reagent). The yellow-coloured substance formed was measured at 412 nm. The results were expressed as GSH mg/g tissue.

[7] = parameters: method as in PMID 24752861; settings: at 10^−4 M concentration; cited from earlier work

DPPH IC50 [1] | NO IC50 [3] | SMILES | TBARS [2] | Superoxide IC50 [4] | CAT [5] | GSH [6] | DPPH scavenging activity [7]
13.67 ± 0.97 mg/L | 37.9 ± 1.31 mg/L | O=C1O[C@H]([C@@H](O)CO)C(O)=C1O [Ascorbic acid, reference compound] | 0.392 ± 0.07 nmol/g tissue | 124.99 ± 1.32 mg/L | 42.56 ± 3.76 U/mg tissue | 8.25 ± 0.45 mg/g tissue | 
 |  | NS(=O)(=O)c1ccc(N2N=C(c3ccco3)CC2c2cnn(-c3ccccc3)c2)cc1 (centres unmarked) [XI] |  |  |  |  | 19%
 |  | Cc1cc(C(C)(C)C)c(O)c(C(C)(C)C)c1 [BHT7, butylated hydroxy toluene] |  |  |  |  | 20%

Source: publication PMC7170299, “Design, synthesis, molecular modelling and biological evaluation of novel 3-(2-naphthyl)-1-phenyl-1H-pyrazole derivatives as potent antioxidants and 15-Lipoxygenase inhibitors” (Journal of Enzyme Inhibition and Medicinal Chemistry, 2020)
